These results are taken from patent US20160008382A1, “METHODS OF TREATMENT OF CANCER” (Millennium Pharmaceuticals, Inc., priority 2012, published 2016).

Where only a bound is given, the exact number is not on record here.

Data set [1] has as its system relapsed or refractory mantle cell lymphoma. Conditions: patients with relapsed or refractory mantle cell lymphoma, Phase II; cited from earlier work.
Data set [2] has as its system nasopharyngeal cancer. The experiment in a line: Treatment of nasopharyngeal cancer patients with the compound of formula (III-A), IV twice-weekly; clinical response. The data set is classed as in vivo, human. On the procedure: (1) Tissue Microarray (obtained from US Biomax, Inc.) of primary nasopharyngeal cancer (n=35) (2) Tissue Microarray of metastatic nasopharyngeal cancer (obtained from US Biomax, Inc.) (n=15) (3) Tissue Microarray of other histologies of head and neck cancers (obtained from US Biomax, Inc.) (n=68) (4) Archival primary tumor biopsy samples of patients with head and neck squamous cell cancers (n=14). All samples were obtained under the appropriate informed consent. The patients were administered the compound of formula (III-A) on a twice-weekly schedule (days 1, 4, 8 and 11 of a 21-day cycle) as an IV injection. Of the primary tumor samples in (4), there were three patients with nasopharyngeal cancer.

Data set [3] concerns hematological and solid tumor xenograft models. The conditions noted are these: range of hematological and solid tumor xenograft models; cited from earlier work.
The conditions of data set [4]: on exposure to aqueous solution or plasma; cited from earlier work.

For the molecule `CC(C)C[C@H](NC(=O)[C@H](Cc1ccccc1)NC(=O)c1cnccn1)B(O)O` [bortezomib, N-2-pyrazinecarbonyl-L-phenylalanine-L-leucineboronic acid], in data set [1], the activity in patients result was “activity”.
On to `CC(C)C[C@H](NC(=O)CNC(=O)c1cc(Cl)ccc1Cl)B1OC(=O)C(CC(=O)O)(CC(=O)O)O1` [compound of formula (III-A), 2,2′-{2-[(1R)-1-({[(2,5-dichlorobenzoyl)amino]acetyl}amino)-3-methylbutyl]-5-oxo-1,3,2-dioxaborolane-4,4-diyl}diacetic acid], for which the “clinical response, Patient 1” value in data set [2] (Patient 1, metastatic nasopharyngeal cancer of a squamous cell type, IV injection days 1, 4, 8 and 11 of a 21-day cycle, NFκB p65 H-score 300) is “durable partial response”. For the same molecule, in data set [2] (Patient 1, nasopharyngeal cancer, NFκB p65 IHC assay H-score 300), the “Responder/Non-responder, Patient 1” value is recorded as “Responder”. Further, the “disease progression, Patient 2 (time to progression)” value in data set [2] (Patient 2, nasopharyngeal cancer, IV injection days 1, 4, 8 and 11 of a 21-day cycle, NFκB p65 H-score 200) is on record as ≤ 4 cycles. The “Responder/Non-responder, Patient 2” value in data set [2] (Patient 2, nasopharyngeal cancer, NFκB p65 IHC assay H-score 200) is on record as “Non-responder”. Further, the “clinical response, Patient 3” value in data set [2] (Patient 3, nasopharyngeal cancer, IV injection days 1, 4, 8 and 11 of a 21-day cycle, NFκB p65 H-score 160) was “progressive disease”. The “Responder/Non-responder, Patient 3” value in data set [2] (Patient 3, nasopharyngeal cancer, NFκB p65 IHC assay H-score 160) was “Non-responder”. Moreover, the “anti-tumor activity in xenograft models” value in data set [3] is “anti-tumor activity”. Besides, the “hydrolysis to the active form MLN2238” value in data set [4] was “rapidly hydrolyzes”.
